pEC50, pIC50: −log10 of the molar value. Where two headings read alike, the source gives them in different places.
Key:
[1] = system: platelet aggregation and secretion; conditions: Sless, Physiol. Rev. 1989; cited from earlier work
[2] = target: T1, integrin αIIb β3 (washed human platelets) (Homo sapiens, UniProt P05106+P08514); test: integrin activation ELISA: biotin-PAC1 binding to intact washed platelets; type: cell-based; conditions: for extent of biotin-PAC1 binding at maximal agonist concentrations: comparison of thrombin, PMA and ADP; for αIIb β3 activation: physiological agonists
T1 construct: endogenous in cells; host or cells: washed human platelets from whole blood of healthy volunteers
T1 sequence (P08514 32-887 limits assumed): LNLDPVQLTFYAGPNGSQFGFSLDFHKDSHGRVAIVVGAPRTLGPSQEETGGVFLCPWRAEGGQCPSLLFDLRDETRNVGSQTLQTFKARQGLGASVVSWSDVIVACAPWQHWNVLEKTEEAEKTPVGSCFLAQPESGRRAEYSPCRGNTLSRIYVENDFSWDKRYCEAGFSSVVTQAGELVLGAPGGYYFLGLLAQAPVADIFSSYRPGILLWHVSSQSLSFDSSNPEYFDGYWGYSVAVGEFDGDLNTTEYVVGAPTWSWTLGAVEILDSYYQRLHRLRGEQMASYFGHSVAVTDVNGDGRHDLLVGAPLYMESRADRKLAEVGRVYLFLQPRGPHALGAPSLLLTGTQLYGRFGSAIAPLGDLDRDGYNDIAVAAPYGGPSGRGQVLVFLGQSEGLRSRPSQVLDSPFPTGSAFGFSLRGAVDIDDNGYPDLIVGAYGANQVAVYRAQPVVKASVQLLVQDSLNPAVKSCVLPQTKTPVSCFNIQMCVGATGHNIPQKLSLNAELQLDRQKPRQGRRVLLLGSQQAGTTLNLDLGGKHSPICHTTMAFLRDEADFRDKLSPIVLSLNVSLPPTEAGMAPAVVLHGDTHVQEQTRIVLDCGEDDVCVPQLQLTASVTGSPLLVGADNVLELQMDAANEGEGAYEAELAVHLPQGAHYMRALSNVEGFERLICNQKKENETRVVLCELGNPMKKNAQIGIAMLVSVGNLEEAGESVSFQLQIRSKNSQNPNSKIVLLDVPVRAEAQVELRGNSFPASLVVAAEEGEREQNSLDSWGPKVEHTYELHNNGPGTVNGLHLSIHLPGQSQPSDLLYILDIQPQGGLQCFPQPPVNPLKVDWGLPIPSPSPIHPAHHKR
T1 sequence (P08514 891-1039 limits assumed): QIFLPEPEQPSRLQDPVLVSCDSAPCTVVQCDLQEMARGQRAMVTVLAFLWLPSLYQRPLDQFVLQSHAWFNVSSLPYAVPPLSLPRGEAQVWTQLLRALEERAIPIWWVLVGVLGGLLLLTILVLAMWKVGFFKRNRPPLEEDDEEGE
T1 sequence (P05106 27-788): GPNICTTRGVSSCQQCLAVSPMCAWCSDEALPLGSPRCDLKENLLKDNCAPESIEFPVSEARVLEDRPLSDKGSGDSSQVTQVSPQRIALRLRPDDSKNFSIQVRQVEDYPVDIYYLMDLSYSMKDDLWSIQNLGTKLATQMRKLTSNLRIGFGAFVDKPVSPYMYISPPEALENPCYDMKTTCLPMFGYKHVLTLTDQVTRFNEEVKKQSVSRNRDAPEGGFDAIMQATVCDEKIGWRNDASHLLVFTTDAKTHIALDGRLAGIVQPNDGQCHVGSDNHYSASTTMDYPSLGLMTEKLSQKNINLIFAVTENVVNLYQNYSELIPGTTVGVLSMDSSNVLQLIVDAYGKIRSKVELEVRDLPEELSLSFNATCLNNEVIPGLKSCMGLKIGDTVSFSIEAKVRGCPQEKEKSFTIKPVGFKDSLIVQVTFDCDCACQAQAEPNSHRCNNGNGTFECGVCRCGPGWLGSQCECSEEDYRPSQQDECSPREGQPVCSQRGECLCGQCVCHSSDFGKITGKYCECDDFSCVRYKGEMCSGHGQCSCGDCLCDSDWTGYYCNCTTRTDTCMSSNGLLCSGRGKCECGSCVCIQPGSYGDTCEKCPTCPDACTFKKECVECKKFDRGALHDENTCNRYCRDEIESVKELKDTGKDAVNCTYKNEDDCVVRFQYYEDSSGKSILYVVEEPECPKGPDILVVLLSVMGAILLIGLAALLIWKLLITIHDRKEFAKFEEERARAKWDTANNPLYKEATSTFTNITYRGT
Procedure: Platelet incubations were carried out in wells of Falcon flexible polyvinyl chloride (PVC) microtitre plates with 96 U-bottom wells (Becton Dickinson, San Jose, Calif.). ELISA reactions were carried out in 96 well Immulon II polystyrene plates (Dynatech Laboratories, Inc., Chantilly, Va.) that had been precoated with streptavidin. This was accomplished by addition of 75 μl/well of streptavidin (1.25 μg/ml) for 16 hours at 4°, followed by washing four times with 200 μl of 1% TWEEN(polyethylenesorbit -20 in phosphate-buffered saline (PBS), pH 7.4, blocking with 200 μl of 1% bovine serum albumin in PBS for 2 hours at room temperature, and washing again. These plates could be stored at -20° for at least 3 months prior to use in the assay.
(§1) Whole blood was obtained from healthy, drug-free volunteers and anticoagulated with a 1:6 volume of acid-citrate-dextrose formula A. Platelet-rich plasma was collected by centrifugation at 180×g for 20 minutes, incubated for 5 minutes with 1 μM prostaglandin E1 and 1 unit/ml apyrase, then sedimented at 500×g for 10 minutes and resuspended in 5 ml of 2 wash buffer containing 20 mM HEPES, 0.15 M NaCl, 0.1% glucose, 1 μM prostaglandin E1, 1 unit/ml apyrase, and 1.5 mM EDTA, pH 7.4. After another centrifugation at 500×g for 20 minutes, the platelets were finally resuspended to 5.8×10^8 /ml in an incubation buffer containing 137 mM NaCl, 2.7 mM KCl, 1.0 mM MgCl2, 3.3 mM NaH2 PO4, 0.1% glucose, 0.1% bovine serum albumin, and 20 mM HEPES, pH 7.35.
Fifty-five μl of washed platelets were added in triplicate to wells of PVC plates containing 10 μl of the desired agonist (or the activation inhibitor, PGI2) and 25 μl of the desired inhibitory test compound (or the equivalent vehicle as a diluent). After 10 minutes at 37° without shaking, 10 μl of biotin-PAC1 were added to achieve a final antibody concentration of 0.5 μg/ml and a platelet concentration of 3.2×10^8 /ml. After a further 15 minutes incubation at room temperature without shaking, the microtitre plates were centrifuged at 2800 rpm for 10 minutes to sediment the platelets, conditions under which essentially all of the platelets were removed from the supernatant.
After platelet centrifugation, 50 μl of supernatant from each well were transferred to corresponding wells of streptavidin-coated plates and incubated for 30 minutes at room temperature. Each well was then washed four times with 200 μl of PBS/Tween, followed by addition of 50 μl of goat anti-mouse IgM-horseradish peroxidase conjugate (1:1500). After incubation for 60 minutes at room temperature, the plates were again washed four times with PBS/Tween, followed by addition of 50 μl of a reaction mixture containing 1 mg/ml o-phenylenediamine dihydrochloride and 0.012% H2 O2 in 0.1 M citrate buffer, pH 4.5. After a final 20 minutes at room temperature, reactions were stopped with 25 μl of 4 N HCl, and formation of the reaction product was measured at 490 nm in a THERMOmax microplate reader (Molecular Devices, Inc.)
Triplicate aliquots of washed human platelets were incubated in microtitre wells at a final volume of 90 μl in the presence of a platelet agohist such as PMA or thrombin, in order to convert αIIb β3 into a high affinity, ligand-competent state. Compounds that were being tested for their ability to inhibit αIIb β3 were also added to some of the wells at this stage. Other wells contain PGI2 (0.2 μM), a potent platelet activation inhibitor, to purposely maintain αIIb β3 in a low-affinity state. After 10 minutes at 37°, 10 μl of a subsaturating and limiting concentration of biotin-PAC1 was added to each well and the incubation was continued for an additional 15 minutes at room temperature.
The microtitre plates were then centrifuged at 2800 rpm for 10 minutes in order to sediment the platelets. […] In contrast, platelets in wells containing an agonist have bound biotinPAC1. […]

[3] = system: integrin αIIb β3 (washed platelets); test: flow cytometry of FITC-PAC1 binding to washed platelets; type: cell-based, human; conditions: washed platelets stimulated for 15 minutes with 0.2 mM phorbol myristate acetate; representative experiment
Procedure: as §1
Assay variables in each step of the assay were examined systematically. […] Flow cytometry was used to assess the activation state of the platelets using FITC-PAC1 as the activation marker (Shattil et al., Blood 1987, 70, 307). No activation of washed platelets was detected. In a representative experiment, mean FITC-PAC1 binding to washed platelets was 22 arbitrary fluorescence units, a value identical to that obtained with platelets in whole blood or in platelet-rich plasma. FITC-PAC1 binding to washed platelets that had been stimulated for 15 minutes with 0.2 mM phorbol myristate acetate amounted to 1,776 fluorescence units.

[4] = system: "internal" pool of activated αIIb β3; conditions: unstirred platelets; Woods et al. 1986; cited from earlier work
αIIb β3 = conditions: PMA 0.2 μM; Shattil et al., Blood 1987; cited from earlier work
protein kinase C = conditions: Toullec et al. 1991; cited from earlier work

Compound: O=CC[C@@H](O)[C@H](O)[C@H](O)CO [2-Deoxyglucose]
- inhibition of platelet aggregation and secretion [1]: block both platelet aggregation and secretion

Compound: Nc1ncnc2c1ncn2[C@@H]1O[C@H](COP(=O)(O)OP(=O)(O)O)[C@@H](O)[C@H]1O [ADP]
- pEC50 [2]: ~6.00
- concentration of maximal αIIb β3 activation ([2]; ADP): 10 µM
- extent of biotin-PAC1 binding at maximal agonist concentrations [2]: less
- αIIb β3 activation [2]: caused αIIb β3 activation in a dose-dependent manner

Compound: CCCCC[C@H](O)/C=C/[C@@H]1[C@H]2C/C(=C/CCCC(=O)O)O[C@H]2C[C@H]1O [PGI2, prostaglandin I2]
- biotin-PAC1 bound to platelets in wells containing PGI2 ([2]; PGI2 0.2 μM): do not have bound biotin-PAC1
- depletion of PAC1 from supernatant ([2]; PGI2-treated, unactivated platelets, any platelet concentration): No depletion of PAC1 was observed

Compound: CCCCCCCCCCCCCC(=O)O[C@@H]1[C@@H](C)[C@@]2(O)[C@@H](C=C(CO)C[C@]3(O)C(=O)C(C)=C[C@@H]23)[C@@H]2C(C)(C)[C@]12OC(C)=O [PMA, phorbol myristate acetate]
- mean FITC-PAC1 binding [3]: 1,776 fluorescence units
- stimulation of surface expression of an internal pool of activated αIIb β3 [4]: stimulate the surface expression
- activation of αIIb β3 in the integrin activation ELISA ([2]; PMA 0.2 μM): maximal activation of αIIb β3
- amount of biotin-PAC1 remaining in supernatant ([2]; PMA 0.2 μM, 0.5 μg/ml biotin-PAC1, increasing number of activated platelets): decreased as the number of activated platelets in the well increased
- extent of biotin-PAC1 binding at maximal agonist concentrations [2]: similar
- activation of αIIb β3 in conventional assays (αIIb β3): maximal activation of αIIb β3

Compound: RGDS
- inhibition of biotin-PAC1 binding to activated platelets ([2]; activated platelets): inhibited in a dose-dependent manner

Compound: RGES
- inhibition of biotin-PAC1 binding to activated platelets ([2]; activated platelets): ineffective

Compound: antimycin A
- inhibition of platelet aggregation and secretion [1]: block both platelet aggregation and secretion

Compound: bisindolylmaleimide
- concentration maximally effective on protein kinase C in platelets (protein kinase C): 10 to 20 µM
- concentration of complete inhibition of biotin-PAC1 binding ([2]; PMA-stimulated platelets): 20 µM
- pIC50 ([2]; PMA-stimulated platelets, read-out: IC50, inhibition of biotin-PAC1 binding): ~6.00

Compound: fibrinogen
- pIC50 ([2]; activated platelets, read-out: IC50, inhibition of biotin-PAC1 binding to activated platelets): 6.40

Compound: thrombin
- stimulation of surface expression of an internal pool of activated αIIb β3 [4]: stimulate the surface expression
- extent of biotin-PAC1 binding at maximal agonist concentrations [2]: similar
- αIIb β3 activation [2]: caused αIIb β3 activation in a dose-dependent manner
- concentration of maximal αIIb β3 activation ([2]; thrombin): 0.1 U/ml

Source: US5561047A, “Method of identifying effectors of integrin activation” (priority 1994, dated 1996)
